Data published in US20110262508A1, “ANTIMICROBIAL COMPOSITIONS, FORMULATIONS AND USES THEREOF” (priority 2007, published 2011).
Peptide text beside a SMILES is read from it. * marks the point of attachment. Biotin = O=C1N[C@H]2[C@H](CS[C@H]2CCCCC(=O)*)N1

Legend:
A. baumannii = type: cell-based
How it was run: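 Laboratory strains and 50 clinical isolates of A. baumannii were tested by CLSI broth microdilution, with serially diluted peptide (0.1-64 μg) and about 1×10^5 C.F.U. per well, incubated aerobically overnight at 35±2° C. MIC was read visually. MBC came from subculturing clear wells, as ≥99.9% inoculum reduction.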

human RBC = experiment: Hemolysis of RBC; type: cell-based
How it was run: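 Washed human erythrocytes were exposed to varying peptide concentrations for 1 h at room temperature. After pelleting intact cells, lysis was read by absorbance at 450 nm and expressed relative to 0.1% Triton-lysed cells. MHC10 is the minimum peptide concentration causing 10% lysis.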

[1] = Cytotoxicity against Jurkat cells (CellTiter Blue); type: cell-based, human; settings: human
[2] = tested on: A. baumannii ATCC 19606, Acinetobacter spp. ATCC 17903, Acinetobacter spp. ATCC 19004, E. coli BL21, S. aureus, S. typhimurium AroA, P. aeruginosa, P. …; experiment: Antibacterial spectrum over the serial dilution panel (Table 6); type: cell-based; settings: summary of Table 6
How it was run: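 Peptides at about 5–10 μM were added to liquid media freshly inoculated with each bacterial strain and shaken 5-6 h at 37° C. Growth read as absorbance at 595 nm; control cultures contained 0.1% acetonitrile.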

A. baumannii cultures = experiment: Time taken to exert cytotoxic effect (killing time); type: cell-based
Experimental: To determine the time killing times for bactericidal peptides, A. baumannii cultures were exposed to different concentrations of peptides for predetermined time periods, and the numbers of bacteria surviving at the end of each time period were determined. Peptides were classified as “Fast”, “Intermediate” or “Slow” according to whether they exerted their cytotoxic effect in less than 30 mins, or between 30-60 mins, or between […] and 240 mins.

SMILES: CC[C@H](C)[C@H](NC(=O)[C@H](Cc1c[nH]c2ccccc12)NC(=O)[C@H](CC(=O)O)NC(=O)[C@H](CO)NC(=O)[C@H](CS)NC(=O)[C@H](CC(C)C)NC(=O)[C@H](CC(C)C)NC(=O)[C@H](C)NC(=O)[C@H](CS)NC(=O)[C@H](CCCNC(=N)N)NC(=O)[C@H](CC(C)C)NC(=O)[C@H](CCCNC(=N)N)NC(=O)[C@H](C)NC(=O)CNC(=O)[C@H](CCCNC(=N)N)NC(=O)[C@@H](NC(=O)CCCC[C@@H]1SC[C@@H]2NC(=O)N[C@@H]21)C(C)C)C(=O)N[C@H](C(=O)N[C@@H](CO)C(=O)N[C@@H](CS)C(=O)N[C@@H](CCCNC(=N)N)C(=O)N[C@@H](CC(C)C)C(=O)N[C@@H](CC(C)C)C(=O)NCC(=O)O)C(C)C [Ac38] (Biotin-VRGARLRCALLCSDWIVSCRLLG-OH; N-terminus and C-terminus assumed)
- MIC (μM) for amidated peptide (A. baumannii): 15 to 20 µM
- MIC (μM) for non-amidated Peptide (A. baumannii): 40 µM
- bactericidal or bacteriostatic against A. baumannii (A. baumannii): bactericidal
- MHC10 (human RBC): >100 µM
- Percent hemolysis at 5 μM peptide (human RBC; red cells of human, 5): 0.8%
- Percent hemolysis at 10 μM peptide (human RBC; red cells of human, 10): 3.8%
- Percent hemolysis at 20 μM peptide (human RBC; red cells of human, 20): 4.8%
- Percent hemolysis at 40 μM peptide (human RBC; red cells of human, 40): 11.9%
- Percent hemolysis at 60 μM peptide (human RBC; red cells of human, 60): 19.5%
- Percent hemolysis at 80 μM peptide (human RBC; red cells of human, 80): 26.9%
- Percent hemolysis at 100 μM peptide (human RBC; red cells of human, 1 h, 100): 27.9%
- cytotoxicity at 12.5 μM [1]: 0%
- cytotoxicity at 25 μM [1]: 0%
- cytotoxicity at 50 μM [1]: 0%
- selectively inhibited growth of A. baumannii ATCC Accession No. 19606, Acinetobacter spp. ATCC 17903, Acinetobacter spp. ATCC 19004, and S. aureus [2]: selectively inhibited growth
- killing time classification (A. baumannii cultures): RAPID
